Measurements from patent US11926841B2, “AAV-based conditional expression system” (priority 2016, dated 2024).

What was measured:
Assay type in all cases: cell-based
[1] = test system: wild type ACV sensitive HSV-1 laboratory strain; assay: AAV replicon based ACV resistance test in LE2D8 cells (GLuc luciferase readout), sensitive HSV-1; details: ACV 6-12 μg/mi, MOI 0.035, 48 hpi
Description: The cell line LE2D8 was seeded onto 96-well-plates at density of 3.3×10^4 cell/well. Two hours after seeding the cells were left untreated or were treated with different concentrations of ACV (CAS: 59277-89-3) (ranging from 0.05 to 144 μg/ml). Right after treatment the cells were infected with either a wild type ACV sensitive HSV-1 laboratory strain or an ACV resistant strain (kindly provided from Dr. Gundula Jäger, Max von Pettenkofer-Institute, LMU Munich) using an MOI of 0.035. After only 48 hpi luciferase activity in 20 μl of the supernatant was measured as the previous experiments. The luciferase activities of the ACV treated cells were compared to the luciferase activities obtained after infection of the non-treated cells. The luciferase induction of the non-treated cells was set 100% and the activity of the ACV treated cells was depicted as % of the non-treated values (FIG. 5A).

[2] = test system: ACV sensitive HSV-1 laboratory strain; assay: Endpoint dilution assay (TCID50) of supernatants of ACV treated infected LE2D8 cells, sensitive HSV-1; details: ACV 1, 6, 12, 48 and 96 μg/ml; counts at day 7
From the text: (§1) For the validation of the new established replicon based assay we made an endpoint-dilution-assay to monitor the amount of the produced viruses in presence of the ACV treatment. This standardised assay for detection of viral growth is very sensitive but very time consuming since 5-7 days are required to obtain the results. To test the virus production in our assay condition with the standard method the sensitive and ACV-resistant HSV-1 containing assay supernatants of the infected LE2D8 cells treated with different concentrations of ACV (n.t., 1, 6, 12, 48 and 96 μg/ml) were collected. Subsequently endpoint dilution assays were performed using HEK-cells in a 96 well plate format. The Tissue Culture Infection Dose 50 (TCID50) was calculated after collecting the infectivity counts at day 7 (FIG. 5B).

ACV-resistant HSV-1 = assay: Endpoint dilution assay (TCID50) of supernatants of ACV treated infected LE2D8 cells, resistant HSV-1; details: ACV 1, 6, 12, 48 and 96 μg/ml; counts at day 7
From the text: as §1

[3] = test system: ACV sensitive HSV-2 isolate; assay: AAV replicon based resistance test with clinical HSV-2 isolates, sensitive isolate; details: ACV 20 μM and higher; LE2D8 cells; 48 hpi
Description: (§2) For testing the single HSV-2 virus isolates, LE2D8 were seeded to 3.3×10^4 cells in a 96 well format, 2 hours before treatment with 0.8, 4, 20, 100 and 500 μM ACV and infection with 1:10 diluted HSV-2 isolates, always using technical triplicates. After 48 hpi, GLuc activity in the supernatant was measured by luminometry and values were compared to non-treated and mock infected cells as above. In FIGS. 6A and 6B we show example of the replicon response induced by an ACV sensitive HSV2- and one of an ACV resistant HSV-2 isolate.

[4] = test system: ACV resistant HSV-2 isolate; assay: AAV replicon based resistance test with clinical HSV-2 isolates, resistant isolate; details: ACV 0.8, 4, 20, 100 and 500 μM; LE2D8 cells; 48 hpi
Description: as §2

With `Nc1nc2c(ncn2COCCO)c(=O)[nH]1` [ACV, Aciclovir] the “luciferase activity, % of non-treated cells” value [1] was 20%, the “virus replication under ACV treatment (TCID50, endpoint dilution)” value [2] was “indeed inhibited by ACV treatment” and the “virus replication under ACV treatment (TCID50, endpoint dilution)” value (ACV-resistant HSV-1) was “could not inhibit the replication”. The “GLuc activity compared to non-treated cells” value [3] was “decreasing amounts of GLuc activity” and the “GLuc induction, % of the non-treated values” [4] was ≥ 50%.
